{
  "source": "patent US6242482A",
  "about": "“Prostaglandin compounds and derivatives thereof, compositions containing the same and method of using the same for the treatment of congestive heart failure” (priority 2000, dated 2001)",
  "key": {"[1]": {"system": "Human Platelet Aggregation (collagen-induced)", "experiment": "Anti-aggregatory response, 1 min incubation with PRP, collagen-induced (Example 4)", "type": "cell-based", "settings": "1 min with PRP; for Platelet Aggregation (mean): collagen 1 μg/ml", "protocol": "(§1) Blood from healthy human volunteers who had not taken any medicine for at least 14 days was collected by venopuncture into 3.15% (w/v) tri-sodium citrate (9:1 v/v). The blood was centrifuged at 800 g for 15 minutes to produce PRP. The PRP was further centrifuged at 12,000 g for 1 minute to produce PPP.\n(§2) Platelet aggregation was measured using a dual channel Payton aggregometer calibrated with PRP (0%) and PPP (100%) with respect to the degree of light transmission. Aliquots of PRP (500 μl) were added to siliconized cuvettes, stirred (1000 revs/min) and warmed to 37° C. The platelets were incubated for 1 minute to establish a stable baseline prior to testing. A submaximal concentration of the aggregating agent collagen (1 μg/ml) was added to the PRP and the platelet aggregation was monitored as the increase in light transmission observed over a 4 minute period.\nThe percent inhibition of the platelet aggregation was calculated using the peak increase in light transmission observed over the 4 minute period following the addition of collagen, as compared to that of the control. This experiment was repeated using PRP from at least three human volunteers."}, "[2]": {"system": "Human Platelet Aggregation (collagen-induced)", "experiment": "Anti-aggregatory response after incubation with aqueous vehicle (acetate buffer) (Example 4)", "type": "cell-based", "protocol": "as §1, §2\n(§3) After the incubation period, a 50 μl aliquot of the aqueous vehicle with the corresponding sample compound was added to fresh PRP (450 μl) for determination of anti-aggregatory activity following challenge with collagen. This experiment was repeated using PPP from at least three human volunteers. […] The data in both Tables 2 and 3 are shown as the mean and the standard error of n number of donors."}, "[3]": {"system": "Human Platelet Aggregation (collagen-induced)", "experiment": "Anti-aggregatory response after incubation with human PPP (Example 4)", "type": "cell-based", "protocol": "as §1, §2, §3"}, "[4]": {"system": "Human Platelet Aggregation (collagen-induced)", "experiment": "Anti-aggregatory activity, 1 min incubation with PRP, collagen-induced (Example 8)", "type": "cell-based", "settings": "1 minute with PRP", "protocol": "(§4) Blood from healthy human volunteers who had not taken any medicine for at least 14 days was collected by venopuncture into 3.15% (w/v) tri-sodium citrate (9:1 v/v). The blood was centrifuged at 800 g for 15 minutes to produce PRP. The PRP was further centrifuged at 12,000 g for 1 minute to produce PPP. A total of 12 volunteers donated blood for the study.\n(§5) Platelet aggregation was studied using a dual channel Payton aggregometer calibrated with PRP (0%) and PPP (100%) with respect to the degree of light transmission. Aliquots of PRP (500 μl) were added to siliconized cuvettes, stirred (1000 revs/min) and warmed to 37° C. The platelets were incubated for 1 minute to establish a stable baseline prior to investigation. A submaximal concentration of the aggregating agent collagen (1 μg/ml) was added to the PRP and the platelet aggregation was monitored as the increase in light transmission observed over a 4 minute period.\nThe percentage inhibition of the platelet aggregation was calculated using the peak increase in light transmission observed over the 4 minute period following addition of collagen, as compared to that of control. This experiment was repeated using PRP from at least three human volunteers for each compound under study."}, "[5]": {"system": "Human Platelet Aggregation (collagen-induced)", "experiment": "Anti-aggregatory response after incubation with PPP (Example 8)", "type": "cell-based", "settings": "up to 4 hours at 37° C", "protocol": "as §4, §5\n(§6) After the incubation period, an aliquot of the PPP or aqueous vehicle (50 μl) was added to fresh PRP (450 μl) for determination of anti-platelet activity. This experiment was repeated using PPP from at least three human volunteers for each compound."}, "[6]": {"system": "Human Platelet Aggregation (collagen-induced)", "experiment": "Anti-aggregatory response after incubation with aqueous vehicle (Example 8)", "type": "cell-based", "settings": "up to 4 hours at 37° C", "protocol": "as §4, §5, §6"}, "[7]": {"system": "mean arterial pressure and heart rate of anesthetized rats", "experiment": "Systemic hemodynamic effects, intravenous, anesthetized rats (Example 9)", "type": "in vivo, rat (male Wistar)", "protocol": "Among other effects, lowering of the blood pressure inside the blood vessels is beneficial for the treatment of congestive heart failure by reducing the vascular resistance of the blood flow which substantially reduces the work load imposed on the heart. […] This study involved the use of male Wistar rats anaesthetized with thiopentone sodium ([…]®, 120 mg kg^-1 i.p.). The trachea was cannulated to facilitate breathing."}, "[8]": {"system": "mean arterial pressure and heart rate of anesthetized rats", "settings": "for Time of Δmax (superscript) / t1/2 / Δmax (Mean Arterial Pressure): Table 4; for Mean Arterial Pressure: 0,1,5,10,15,30,60,120,180,240,360 min", "protocol": "Male Wistar rats (250-330 g) were anesthetized with thiopentone sodium (INTRAVAL®, 120 mg/kg i.p.). The trachea was cannulated to facilitate respiration. The right carotid artery was cannulated and connected to a pressure transducer (Spectramed P23XL), for the measurement of mean arterial pressure (MAP) and heart rate (HR) which were continuously recorded on a 4-channel Grass 7D polygraph recorder (Grass, Mass., U.S.A.). Body temperature was maintained at 37±1°C. by means of a rectal probe thermometer attached to a homeothermic blanket control unit (Harvard Apparatus Ltd.)."}},
  "note": "Several values for one entry are separate records, joined by “and”; a condition that tells them apart may be missing. Equal values may be shown once. Read-outs that look alike come from different tables or passages of the source.",
  "data": [
    {"smiles": "CCCCC[C@H](O)CC[C@@H]1[C@H]2Cc3cccc(OCC(=O)O)c3C[C@H]2C[C@H]1O", "note": "[Compound X]", "values": [
      {"measurement": "Platelet Aggregation (mean)", "setting": "[1]; 1 ng/ml final", "value": "101 % of Control"},
      {"measurement": "Platelet Aggregation (mean)", "setting": "[1]; 3 ng/ml final", "value": "98 % of Control"},
      {"measurement": "Platelet Aggregation (mean)", "setting": "[1]; 10 ng/ml final", "value": "60 % of Control"},
      {"measurement": "Platelet Aggregation (mean)", "setting": "[1]; 30 ng/ml final", "value": "1 % of Control"},
      {"measurement": "Platelet Aggregation (mean)", "setting": "[1]; 100 ng/ml final", "value": "1 % of Control"},
      {"measurement": "inhibition of aggregation response at highest concentrations", "setting": "[1]; Compound X 30 and 100 ng/ml, Compound 1 3 mg/ml, Compound 3 10 mg/ml", "value": "completely inhibited the aggregation response"},
      {"measurement": "concentration inhibiting aggregation by 50% (ID50)", "setting": "[1]; collagen", "value": 0.02, "unit": "µg/mL"},
      {"measurement": "inhibition of platelet aggregation, concentration dependence", "setting": "[1]; collagen", "value": "concentration-dependentinhibition of collagen-induced platelet aggregation"},
      {"measurement": "Platelet Aggregation (mean)", "setting": "[2]; 3 ng/ml final, 1 Hour in acetate buffer", "value": "107 % of Control"},
      {"measurement": "Platelet Aggregation (mean)", "setting": "[2]; 3 ng/ml final, 4 Hours in acetate buffer", "value": "94 % of Control"},
      {"measurement": "Platelet Aggregation (mean)", "setting": "[2]; 3 ng/ml final, 15 Minutes in acetate buffer", "value": "98 % of Control"},
      {"measurement": "Platelet Aggregation (mean)", "setting": "[2]; 30 ng/ml final, 1 Hour in acetate buffer", "value": "8 % of Control"},
      {"measurement": "Platelet Aggregation (mean)", "setting": "[2]; 30 ng/ml final, 4 Hours in acetate buffer", "value": "8 % of Control"},
      {"measurement": "Platelet Aggregation (mean)", "setting": "[2]; 30 ng/ml final, 15 Minutes in acetate buffer", "value": "3 % of Control"},
      {"measurement": "effect of incubation with aqueous vehicle on anti-platelet activity", "setting": "[2]; 15 minutes, 1 hour and 4 hours", "value": "no significant effect on the degree of anti-platelet activity"},
      {"measurement": "Platelet Aggregation (mean)", "setting": "[3]; 3 ng/ml final, 1 Hour in human PPP", "value": "100 % of Control"},
      {"measurement": "Platelet Aggregation (mean)", "setting": "[3]; 3 ng/ml final, 4 Hours in human PPP", "value": "91 % of Control"},
      {"measurement": "Platelet Aggregation (mean)", "setting": "[3]; 3 ng/ml final, 15 Minutes in human PPP", "value": "101 % of Control"},
      {"measurement": "Platelet Aggregation (mean)", "setting": "[3]; 30 ng/ml final, 1 Hour in human PPP", "value": "1 % of Control"},
      {"measurement": "Platelet Aggregation (mean)", "setting": "[3]; 30 ng/ml final, 4 Hours in human PPP", "value": "1 % of Control"},
      {"measurement": "Platelet Aggregation (mean)", "setting": "[3]; 30 ng/ml final, 15 Minutes in human PPP", "value": "1 % of Control"},
      {"measurement": "effect of incubation with PPP on anti-platelet activity", "setting": "[3]; 15 minutes, 1 hour and 4 hours", "value": "no significant effect on the anti-platelet activity"},
      {"measurement": "concentration inhibiting aggregation by 50% (IC50)", "setting": "[4]", "value": "0.019 ± 0.001", "unit": "µg/mL"},
      {"measurement": "inhibition of platelet aggregation, concentration dependence", "setting": "[4]", "value": "concentration dependent inhibition of collagen-induced platelet aggregation"},
      {"measurement": "inhibition of aggregation response at highest concentrations", "setting": "[4]; X 30 and 100 ng/ml, 4 300 μg/ml, 6 3 mg/ml, 7 10 mg/ml", "value": "completely inhibited the aggregation response"},
      {"measurement": "effect of incubation with PPP on anti-platelet activity", "setting": "[5]", "value": "not affected by incubation"},
      {"measurement": "effect of incubation with aqueous vehicle/saline/buffer on anti-platelet activity", "setting": "[6]", "value": "not affected by incubation"},
      {"measurement": "effective life of the fall in MAP", "setting": "[7]; comparison of Compound 4 with Compound X (1 mg/kg i.v.)", "value": 30, "unit": "min"},
      {"measurement": "fall in MAP", "setting": "[7]; i.v., Compound X 1 mg/kg, Compound 4 1-10 mg/kg, others 3-30 mg/kg", "value": "similar, maximal fall in MAP to the highest dose of Compound 4"},
      {"measurement": "Time of Δmax (superscript)", "setting": "[8]; 0.1 mg/kg s.c.", "value": 15, "unit": "min"},
      {"measurement": "t1/2", "setting": "[8]; 0.1 mg/kg s.c.", "value": 2.75, "unit": "h"},
      {"measurement": "Δmax (Mean Arterial Pressure)", "setting": "[8]; 0.1 mg/kg s.c.", "value": "46 ± 5", "unit": "mm Hg"},
      {"measurement": "Mean Arterial Pressure", "setting": "[8]; 0.3 mg/kg s.c.", "value": "101 ± 12", "unit": "mm Hg"},
      {"measurement": "Time of Δmax (superscript)", "setting": "[8]; 0.3 mg/kg s.c.", "value": 10, "unit": "min"},
      {"measurement": "t1/2", "setting": "[8]; 0.3 mg/kg s.c.", "value": "1.33 to 1.83", "unit": "h"},
      {"measurement": "Δmax (Mean Arterial Pressure)", "setting": "[8]; 0.3 mg/kg s.c.", "value": 52, "unit": "mm Hg"},
      {"measurement": "maximum fall in MAP", "setting": "[8]; 1 mg/kg s.c.", "value": "about 70 mm Hg"},
      {"measurement": "time of maximum fall in MAP", "setting": "[8]; 1 mg/kg s.c.", "value": 15, "unit": "min"},
      {"measurement": "Mean Arterial Pressure", "setting": "[8]; 1 mg/kg s.c.", "value": "88 ± 5 mm Hg and 98 ± 6 mm Hg"},
      {"measurement": "Time of Δmax (superscript)", "setting": "[8]; 1 mg/kg s.c.", "value": 15, "unit": "min"},
      {"measurement": "t1/2", "setting": "[8]; 1 mg/kg s.c.", "value": "2.25 to 4.83", "unit": "h"},
      {"measurement": "Δmax (Mean Arterial Pressure)", "setting": "[8]; 1 mg/kg s.c.", "value": "71 ± 8", "unit": "mm Hg"},
      {"measurement": "heart rate / tachycardia", "setting": "[8]; rat, in vivo, sc", "value": "dose-dependent increase in heart rate"},
      {"measurement": "fall in MAP", "setting": "[8]; s.c., Compound 4 1-10 mg/kg, Compound X 0.1-1 mg/kg, Compounds 7 and 8 3-30 mg/kg", "value": "rapid dose-related fall in MAP"}
    ]}
  ]
}
